Active and inactive are the calls of the source. The calls are words filed in the database; no cut-off is given here.
Tests used:
[1] = test system: Mus musculus; assay: Antithrombotic activity in carrageenan induced thrombosis in male BALB/c mouse model assessed as thrombosis rate at 30 mg/kg, IG preadministered with PBS for 7 days followed by carrageenan stimulation on day 7 and measured after 2 days post compound administration relative to control; format: functional; conditions: time 2 day
[2] = Selectivity index, ratio of IC50 for chymotrypsin (unknown origin) to IC50 for FXIIa (unknown origin)
[3] = target: Prothrombin (Homo sapiens, UniProt P00734); assay: Inhibition of thrombin (unknown origin) using H-D-Phe-Pip-Arg-pNA-2HCl as substrate incubated for 20 mins followed by substrate addition by spectrophotometric analysis
[4] = test system: Plasma; assay: Anticoagulant activity in human plasma assessed as prolongation of activated partial thromboplastin time at 300 uM incubated for 2 mins by aPTT reagent based assay relative to control; format: functional
[5] = test system: Mus musculus; assay: Antiinflammatory activity in carrageenan-induced thrombosis in male BALB/c mouse model assessed as reduction in IL-6 level at 20 mg/kg, po by ELISA method; format: functional, organism-based
[6] = test system: RAW264.7; assay: Antiinflammatory activity in mouse RAW264.7 cells assessed as inhibition of LPS-induced IL-6 expression preincubated for 12 hrs followed by LPS stimulation and measured after 12 hrs by real time quantitative RT-PCR assay; format: functional, cell-based; conditions: dose 5-10 µM, time 24.0 hrs
[7] = target: Coagulation factor X (Homo sapiens, UniProt P00742); assay: Inhibition of FXa (unknown origin) using Z-D-Arg-Gly-Arg-pNA.2HCl as chromogenic substrate incubated for 20 mins followed by substrate addition by spectrophotometric analysis
[8] = test system: RAW264.7; assay: Cytotoxicity against mouse RAW264.7 cells assessed as reduction in cell viability at upto 40 uM by CCK-8 assay; format: toxicity, cell-based; conditions: raw264.7, 40 µM
[9] = Selectivity index, ratio of IC50 for FXIa (unknown origin) to IC50 for FXIIa (unknown origin)
[10] = test system: Plasma; assay: Anticoagulant activity in human plasma assessed as prolongation of activated partial thromboplastin time incubated for 2 mins by aPTT reagent based assay; format: functional
[11] = test system: Mus musculus; assay: Antithrombotic activity in carrageenan induced thrombosis in male BALB/c mouse model assessed as inhibition of tail thrombosis at 20 to 30 mg/kg, IG preadministered with PBS for 7 days followed by carrageenan stimulation on day 7 and measured after 2 days post compound administration by H and E staining based analysis; format: functional, organism-based; conditions: dose 20-30 mg/kg, time 2.0 day
[12] = test system: Mus musculus; assay: Antithrombotic activity in carrageenan induced thrombosis in male BALB/c mouse model assessed as inhibition of tail thrombosis at 20 mg/kg, IG administered for 9 days with carrageenan stimulation on day 7 by H and E staining based analysis; format: functional, organism-based; conditions: time 9.0 day
[13] = target: Coagulation factor XI (Homo sapiens, UniProt P03951); assay: Inhibition of FXIa (unknown origin) using p-Glu-Pro-Arg-pNA.HCl as chromogenic substrate incubated for 20 mins followed by substrate addition by spectrophotometric analysis
[14] = Selectivity index, ratio of IC50 for FXa (unknown origin) to IC50 for FXIIa (unknown origin)
[15] = Selectivity index, ratio of IC50 for tPA (unknown origin) to IC50 for FXIIa (unknown origin)
[16] = target: Trypsin (Homo sapiens, UniProt P07477+P07478+P35030); assay: Inhibition of trypsin (unknown origin) using Bz-lle-Glu(gamma-OR)-Gly-Arg-pNA.HCl as chromogenic substrate incubated for 20 mins followed by substrate addition by spectrophotometric analysis; format: protein assay
[17] = Stability of the compound in water under acidic condition at pH 3 measured after 48 hrs; format: physicochemical; conditions: buffer, pH 3, 48 h
[18] = test system: Mus musculus; assay: Antithrombotic activity in carrageenan induced thrombosis in male BALB/c mouse model assessed as reduction in tail thrombosis administered as IG dose preadministered with PBS for 7 days followed by carrageenan stimulation on day 7 and measured after 2 days post compound administration; format: functional, organism-based; conditions: dose 10-30 mg/kg, time 2.0 day
[19] = test system: RAW264.7; assay: Antiinflammatory activity in mouse RAW264.7 cells assessed as inhibition of LPS-induced IL-1 beta expression preincubated for 12 hrs followed by LPS stimulation and measured after 12 hrs by real time quantitative RT-PCR assay; format: functional, cell-based; conditions: dose 5-10 µM, time 24.0 hrs
[20] = target: Chymotrypsin (Homo sapiens, UniProt Q99895+P17538+P40313+Q6GPI1); assay: Inhibition of Chymotrypsin (unknown origin) using N-Suc-Ala-Ala-Pro-Phe-pNA as chromogenic substrate incubated for 20 mins followed by substrate addition by spectrophotometric analysis; format: protein assay
[21] = target: Tissue-type plasminogen activator (Homo sapiens, UniProt P00750); assay: Inhibition of tPA (unknown origin) using H-D-lle-Pro-Arg-pNA-2HCl as chromogenic substrate incubated for 20 mins followed by substrate addition by spectrophotometric analysis
[22] = test system: RAW264.7; assay: Antiinflammatory activity in mouse RAW264.7 cells assessed as inhibition of LPS-induced IL-1 beta expression at 10 uM preincubated for 12 hrs followed by LPS stimulation and measured after 12 hrs by real time quantitative RT-PCR assay; format: functional, cell-based; conditions: time 24.0 hrs
[23] = test system: Plasma; assay: Selectivity ratio of anticoagulant activity in non-activated human plasma at 10 to 25 uM measured after 260 mins to anticoagulant activity in non-activated human plasma at 10 to 25 uM measured after 2 mins; format: functional; conditions: dose 10-25 µM, 4.333 h
[24] = test system: Plasma; assay: Anticoagulant activity in mouse plasma at 25 uM measures upto 20 mins by aPTT reagent based analysis; format: functional, cell-free
[25] = Stability of the compound in water under […] condition at pH 11 measured after 48 hrs; format: physicochemical; conditions: buffer, pH 11, 48 h
[26] = target: Plasminogen (Homo sapiens, UniProt P00747); assay: Inhibition of plasmin (unknown origin) using PyroGlu-Phe-Lys-pNA.HCl as chromogenic substrate incubated for 20 mins followed by substrate addition by spectrophotometric analysis
[27] = test system: Mus musculus; assay: Antiinflammatory activity in carrageenan-induced thrombosis in male BALB/c mouse model assessed as reduction in IL-1 beta level at 20 mg/kg, po by ELISA method; format: functional, organism-based
[28] = Selectivity index, ratio of IC50 for thrombin (unknown origin) to IC50 for FXIIa (unknown origin)
[29] = Selectivity index, ratio of IC50 for PKal (unknown origin) to IC50 for FXIIa (unknown origin)
[30] = test system: Plasma; assay: Anticoagulant activity in non-activated human plasma at 10 to 25 uM measured after 260 mins; format: functional, cell-free; conditions: dose 10-25 µM
[31] = target: Plasma kallikrein (Homo sapiens, UniProt P03952); assay: Inhibition of PKal (unknown origin) using H-D-Pro-Phe-Arg-pNA-2HCl as substrate incubated for 20 mins followed by substrate addition by spectrophotometric analysis
[32] = test system: RAW264.7; assay: Antiinflammatory activity in mouse RAW264.7 cells assessed as inhibition of LPS-induced IL-6 expression at 10 uM preincubated for 12 hrs followed by LPS stimulation and measured after 12 hrs by real time quantitative RT-PCR assay; format: functional, cell-based; conditions: time 24.0 hrs
[33] = Stability of the compound in water at pH 5 to 7 measured after 48 hrs; format: physicochemical; conditions: buffer, pH 5, 48 h
[34] = Selectivity index, ratio of IC50 for plasmin (unknown origin) to IC50 for FXIIa (unknown origin)
[35] = test system: Plasma; assay: Anticoagulant activity in human blood plasma at 75 uM measures upto 20 mins by aPTT reagent based analysis; format: functional, cell-free

Sequence of Tissue-type plasminogen activator (P00750 whole entry): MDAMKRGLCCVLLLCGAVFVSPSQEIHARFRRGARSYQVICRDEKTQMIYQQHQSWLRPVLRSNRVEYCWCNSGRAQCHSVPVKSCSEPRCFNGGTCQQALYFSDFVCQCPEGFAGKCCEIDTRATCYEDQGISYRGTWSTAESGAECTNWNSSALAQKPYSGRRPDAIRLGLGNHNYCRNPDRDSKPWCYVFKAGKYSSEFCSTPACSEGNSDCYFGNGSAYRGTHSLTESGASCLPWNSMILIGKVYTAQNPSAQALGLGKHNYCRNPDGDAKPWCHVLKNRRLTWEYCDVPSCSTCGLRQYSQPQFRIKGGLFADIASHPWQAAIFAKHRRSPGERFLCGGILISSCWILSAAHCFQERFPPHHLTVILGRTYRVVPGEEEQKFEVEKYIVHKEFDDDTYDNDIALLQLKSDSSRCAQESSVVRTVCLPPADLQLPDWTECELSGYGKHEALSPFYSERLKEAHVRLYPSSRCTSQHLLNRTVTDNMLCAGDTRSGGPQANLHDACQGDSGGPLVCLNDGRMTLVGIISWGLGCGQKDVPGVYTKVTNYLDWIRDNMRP
Sequence of Plasma kallikrein (P03952 20-390 limits assumed): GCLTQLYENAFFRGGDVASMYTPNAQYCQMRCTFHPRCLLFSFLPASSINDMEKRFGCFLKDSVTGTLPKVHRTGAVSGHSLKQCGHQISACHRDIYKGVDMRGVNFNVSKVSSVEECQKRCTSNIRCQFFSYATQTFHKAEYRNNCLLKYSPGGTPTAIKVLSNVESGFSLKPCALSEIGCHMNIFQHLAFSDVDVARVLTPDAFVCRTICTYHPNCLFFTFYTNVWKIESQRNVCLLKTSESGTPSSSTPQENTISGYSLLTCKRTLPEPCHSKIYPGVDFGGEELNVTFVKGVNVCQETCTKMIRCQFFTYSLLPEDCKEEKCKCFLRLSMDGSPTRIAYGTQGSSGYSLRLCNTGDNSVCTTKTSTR
Sequence of Plasma kallikrein (P03952 391-638 limits assumed): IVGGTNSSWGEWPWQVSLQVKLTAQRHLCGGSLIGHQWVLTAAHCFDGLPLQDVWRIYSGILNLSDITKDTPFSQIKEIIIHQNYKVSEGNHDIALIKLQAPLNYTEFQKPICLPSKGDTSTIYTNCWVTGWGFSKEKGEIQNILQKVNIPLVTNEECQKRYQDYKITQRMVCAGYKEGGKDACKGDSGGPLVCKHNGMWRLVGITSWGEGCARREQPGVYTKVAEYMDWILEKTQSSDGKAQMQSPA
Sequence of Coagulation factor XI (P03951 19-387 limits assumed): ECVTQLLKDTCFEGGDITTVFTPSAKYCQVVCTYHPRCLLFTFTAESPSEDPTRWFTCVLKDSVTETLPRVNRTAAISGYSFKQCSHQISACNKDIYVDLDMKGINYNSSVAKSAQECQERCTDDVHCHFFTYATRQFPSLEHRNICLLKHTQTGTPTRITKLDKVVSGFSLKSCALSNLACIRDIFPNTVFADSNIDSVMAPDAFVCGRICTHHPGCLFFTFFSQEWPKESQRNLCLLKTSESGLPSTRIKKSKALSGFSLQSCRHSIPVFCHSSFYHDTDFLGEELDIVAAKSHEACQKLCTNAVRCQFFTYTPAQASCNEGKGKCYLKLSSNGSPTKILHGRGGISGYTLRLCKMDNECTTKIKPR
Sequence of Coagulation factor XI (P03951 388-625 limits assumed): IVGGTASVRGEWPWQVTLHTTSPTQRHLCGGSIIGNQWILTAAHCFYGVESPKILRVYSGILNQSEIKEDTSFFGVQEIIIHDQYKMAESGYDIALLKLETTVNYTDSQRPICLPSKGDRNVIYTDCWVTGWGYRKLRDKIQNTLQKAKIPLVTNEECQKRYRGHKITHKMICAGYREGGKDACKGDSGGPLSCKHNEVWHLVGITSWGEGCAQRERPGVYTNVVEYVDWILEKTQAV
Sequence of Coagulation factor X (P00742 41-179 limits assumed): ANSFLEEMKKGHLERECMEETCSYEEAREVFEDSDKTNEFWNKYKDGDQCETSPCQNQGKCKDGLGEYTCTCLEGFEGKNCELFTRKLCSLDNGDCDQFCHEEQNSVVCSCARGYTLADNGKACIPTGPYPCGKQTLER
Sequence of Coagulation factor X (P00742 235-488 limits assumed): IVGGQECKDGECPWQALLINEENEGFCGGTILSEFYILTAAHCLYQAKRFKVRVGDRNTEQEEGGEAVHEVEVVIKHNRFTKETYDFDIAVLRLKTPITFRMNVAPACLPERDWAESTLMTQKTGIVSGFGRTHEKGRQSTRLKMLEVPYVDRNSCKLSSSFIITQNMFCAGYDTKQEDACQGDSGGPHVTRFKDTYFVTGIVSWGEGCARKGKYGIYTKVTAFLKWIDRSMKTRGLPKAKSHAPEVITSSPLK
Sequence of Plasminogen (P00747 97-580 limits assumed): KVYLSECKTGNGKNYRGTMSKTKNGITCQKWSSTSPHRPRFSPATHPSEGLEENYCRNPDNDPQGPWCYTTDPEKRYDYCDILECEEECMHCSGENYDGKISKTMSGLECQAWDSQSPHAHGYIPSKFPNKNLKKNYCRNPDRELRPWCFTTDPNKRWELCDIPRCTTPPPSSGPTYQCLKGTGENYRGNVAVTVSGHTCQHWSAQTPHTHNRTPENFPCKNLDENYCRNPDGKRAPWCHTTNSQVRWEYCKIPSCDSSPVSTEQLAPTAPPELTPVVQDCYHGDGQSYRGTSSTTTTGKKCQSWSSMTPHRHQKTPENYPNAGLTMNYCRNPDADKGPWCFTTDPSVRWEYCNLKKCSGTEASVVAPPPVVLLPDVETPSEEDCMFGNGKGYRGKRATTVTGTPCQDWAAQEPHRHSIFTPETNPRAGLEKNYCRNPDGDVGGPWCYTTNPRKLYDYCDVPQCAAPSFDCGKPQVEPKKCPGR
Sequence of Plasminogen (P00747 581-810 limits assumed): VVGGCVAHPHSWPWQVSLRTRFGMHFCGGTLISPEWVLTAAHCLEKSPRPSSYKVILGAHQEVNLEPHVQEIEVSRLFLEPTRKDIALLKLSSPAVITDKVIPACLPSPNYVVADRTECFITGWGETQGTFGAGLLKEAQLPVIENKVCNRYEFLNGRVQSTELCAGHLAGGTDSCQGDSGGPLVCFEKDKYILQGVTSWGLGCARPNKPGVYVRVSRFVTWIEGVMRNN

SMILES	Activity [1] [%]	Ratio IC50 [2]	IC50 [3] [µM]	Activity [4] [%]	Activity [5]	Activity [6]	IC50 [7] [µM]	Activity [8]	Ratio IC50 [9]	EC1.5 [10] [µM]	Activity [11]	Activity [12]	IC50 [13] [µM]	Ratio IC50 [14]	Ratio IC50 [15]	IC50 [16] [µM]	Stability [17]	Activity [18]	Activity [19]	IC50 [20] [µM]	further results
CC(C)N1CCN(c2ccc(C(=O)n3nc(-c4ccccn4)nc3N)c3ccccc23)CC1	~30	> 670	20	542	Active	Dose-Dependent Effect	> 25	Non-Toxic	> 670	68	Active	Active	> 25	> 670	> 670	> 25	Stable	Dose-Dependent Effect	Dose-Dependent Effect	> 25	IC50 [21]: > 25 µM; Activity [22]: Active; Ratio [23]: 2; Activity [24]: Active; Stability [25]: Stable; IC50 [26]: > 25 µM; Activity [27]: Active; Ratio IC50 [28]: 910; Ratio IC50 [29]: > 670; Activity [30]: Active; IC50 [31]: > 25 µM; Activity [32]: Active; Stability [33]: Stable; Ratio IC50 [34]: > 670; Activity [35]: Active
CC(C)N1CCCN(c2ccc(C(=O)n3nc(-c4ccccn4)nc3N)c3ccccc23)CC1	~10	> 1190	7	905	Active	Dose-Dependent Effect	> 25	Non-Toxic	> 1190	37	Active	Active	> 25	> 1190	> 1190	> 25	Stable	Dose-Dependent Effect	Dose-Dependent Effect	> 25	IC50 [21]: > 25 µM; Activity [22]: Active; Ratio [23]: 2; Activity [24]: Active; Stability [25]: Stable; IC50 [26]: > 25 µM; Activity [27]: Active; Ratio IC50 [28]: 210; Ratio IC50 [29]: > 1190; Activity [30]: Active; IC50 [31]: > 25 µM; Activity [32]: Active; Stability [33]: Stable; Ratio IC50 [34]: > 1190; Activity [35]: Active

From ChEMBL document CHEMBL5500412, “Discovery of Highly Selective, Potent, Covalent, and Orally Bioavailable Factor XIIa Inhibitors for the Treatment of Thrombo-Inflammation” (J Med Chem, 2024)
